Results on three compounds are retold here after article PMC5940854, “Nitrothiophene carboxamides, a novel narrow spectrum antibacterial series: Mechanism of action and Efficacy” (Scientific Reports, 2018).

In assay [1] the test system is E. coli yciM knockout strain. The assay is described as follows: MIC, efflux pump knockout yciM. The class given is cell-based. The settings on record: Escherichia coli, read-out: MIC yciM. Here is the method: (§1) The inoculum used for all the experiments is derived from a single seed lot that is maintained as glycerol stocks at −80 °C and are sub cultured on LB plate for isolated colonies. Single colony of each strain is grown in M9 medium. All test compound stocks and dilutions are prepared in DMSO. Serial two-fold dilutions of compounds are prepared separately, with the concentrations ranging from 2 mg/mL to 0.015 mg/mL. To 150 µl (3–7 × 10^5 CFU/ml) of bacterial culture in 96 well microtitre plates, 3 μL compound from each of the dilutions is added to respective wells to obtain final concentrations ranging from 40 µg/mL to 0.3 µg/mL of the test compounds. Media control, culture control and appropriate reference drug controls are included. […] Growth is monitored by checking absorbance at 600 nm (A600). […] The samples from MIC and above concentrations are plated for MBC (Minimum Bactericidal Concentration). The samples are diluted 1:10 and plated on LB agar plates. […] The killing kinetics is determined by enumerating survivors at various time points following compound exposure. E. coli cells (~10^7 CFU/ml; A600 of 0.1) are treated with various concentrations (40 µg/mL to 0.3 µg/mL) of compounds in a 96-well microtitre plate. […] Data is expressed as the log10 CFU for each drug treatment.

Assay [2] concerns E. coli bcr knockout strain. Put plainly: MIC, efflux pump knockout bcr. The settings on record: Escherichia coli, read-out: MIC bcr. The class given is cell-based. Here is the method: as §1
Assay [3] relates to E. coli mdfA knockout strain. The assay is described as follows: MIC, efflux pump knockout mdfA. Particulars: Escherichia coli, read-out: MIC mdfA. The assay is classed as cell-based. Here is the method: as §1
Assay [4] deals with E. coli emrB knockout strain. The assay is described as follows: MIC, efflux pump knockout emrB. The settings on record: Escherichia coli, read-out: MIC emrB. The assay is classed as cell-based. As for the experimental part:
as §1

Assay [5] relates to E. coli emrE knockout strain. The assay is described as follows: MIC, efflux pump knockout emrE. The assay is classed as cell-based. Particulars: Escherichia coli, read-out: MIC emrE. As for the experimental part: as §1
Assay [6] relates to Shigella flexneri clinical strain. Put plainly: MIC, Shigella flexneri. The class given is cell-based. As for the experimental part: as §1
The subject of the next assay is E. coli BW25113. Put plainly: Neutropenic thigh infection, E. coli BW25113. The assay is classed as in vivo, BALB/c mice.

In brackets after ≈: the same amount, converted by molar mass.

The term MIC denotes the least concentration at which growth counts as inhibited. Take `Cc1sc(NC(=O)c2ccc([N+](=O)[O-])s2)nc1-c1ccccc1` [compound 7, N-(5-Methyl-4-phenylthiazol-2-yl)-5-nitrothiophene-2-carboxamide]: the MIC in assay [1], in assay [2], in assay [3], in assay [4] and in assay [5] was more than 40 µg/mL in each case.

In turn, `O=C(Nc1nc(-c2ccc(F)cc2F)cs1)c1ccc([N+](=O)[O-])s1` [compound 12, N-(4-(2,4-difluorophenyl)thiazol-2-yl)-5-nitrothiophene-2-carboxamide] had an MIC Shigella flexneri in assay [6] of 10 µg/mL (≈ 27.2 µM).

In the case of `O=C(Nc1nc(-c2ccc(F)cc2)cs1)c1ccc([N+](=O)[O-])s1` [compound 15, N-(4-(4-Fluorophenyl)thiazol-2-yl)-5-nitrothiophene-2-carboxamide], the “Log10CFU Mean Diff. vs. Untreated Controls” value with E. coli BW25113 (Study TI-2014-008, BW25113, 30mg/kg per oral) worked out at 0.9167 Log10CFU; in the assay with E. coli BW25113 (Study TI-2014-008, BW25113, 100mg/kg per oral) it was 1.643 Log10CFU. In the assay with E. coli BW25113 (WT E. coli BW25113), the “efficacy in thigh infection model (in words)” value is reported as “significantly bactericidal”.
